# Values quoted from earlier work, collected in patent publication US20230310464A1, “USE OF C[…] THE TREATMENT OF SEIZURES ASSOCIATED WITH RARE […] SYNDROMES RELATED TO BRAIN INJURY” (GW Research Limited, priority 2020, published 2023).
# Legend:
# [1] = tested on: seizures in patients with Lennox Gastaut syndrome; details: 100% CBD, half also with HIE, Morales et al.; cited from earlier work
# [2] = tested on: patients with Dravet and Lennox-Gastaut syndrome; details: purified pharmaceutical formulation of CBD, three trials; cited from earlier work
compound,measurement,setting,value
"C=C(C)[C@@H]1CCC(C)=C[C@H]1c1c(O)cc(CCCCC)cc1O [CBD, cannabidiol]",effect on seizures in LGS patients (in words),[1],a reduction in seizures was obtained
same,efficacy in randomized control trials (in words),[2],showed efficacy
